Tests used:
[1] = tested on: COPD BECs infected with HRV16; test: Gene expression by real-time PCR in ALI cultures of COPD BECs infected with HRV16; format: cell-based, human; conditions: 24 h post HRV16 infection
Text: (§1) Air-liquid interface (ALI) cultured human bronchial epithelial cells (BECs) from chronic obstructive pulmonary disease (COPD) donors were either bought fully differentiated (Epithelix Sarl, Cat. No. EP10MD) or cultured in-house using the Pneumocult method (StemCell Technologies, Cat. No. 05001), in a 24-well format. Primary cells for in-house ALI cultures were obtained from Epithelix Sarl, Cat. No. EP18AB.
(§2) Prior to infection, ALI cells were washed twice in warm PBS (with Ca2^+/Mg2^+). Subsequently, human rhinovirus 16 was applied at multiplicity of infection (MOI) of 1 or 5 in a total volume of 50 μl culture medium. The virus was allowed to attach for 1h at room temperature with gentle agitation. […]
(§3) Ribonucleic acid (RNA) from ALI cultured COPD BECs was prepared by lysing the cells in RLT buffer supplied with Promega Total RNA Isolation System (Promega, Cat. No. Z3505). […] Amplification of specific targets was performed by quantitative real-time polymerase chain reaction (qRT-PCR) using the TaqMan® gene expression system (Applied Biosystems Cat. No. 4369510) and ready to use TaqMan® primer/probes (see Table 1). […]

[2] = tested on: healthy neutrophil; test: Neutrophil chemotaxis in response to supernatants from HRV16 infected COPD BECs; format: cell-based; conditions: supernatants of COPD BECs 72 h post HRV16 infection, versus untreated infected samples
[3] = tested on: COPD bronchial epithelial cells infected with HRV16; test: Genome-wide transcriptional analysis by microarray of COPD BECs infected with HRV16; format: cell-based, human; conditions: 72 h HRV16 infection
Text: as §1
(§4) Prior to infection, ALI cells were washed twice in warm PBS (with Ca2^+/Mg2^+). Subsequently, human rhinovirus 16 was applied at multiplicity of infection (MOI) of 1 or 5 in a total volume of 50 μl culture medium. The virus was allowed to attach for 1h at room temperature with gentle agitation. Consequently, the virus was washed off with warm PBS (with Ca2^+/Mg2^+) and cells were further cultured at 37° C. for the indicated amount of time either with or without the addition of a rsecretase inhibitor CompA (S)-2-[2-(3,5-difluorophenyl)-acetylamino]-N—((S)-1-methyl-2-oxo-5-phenyl-2,3-dihydro-1H-benzo[e][1,4]diazepin-3-yl)-propionamide, (Calbiochem Cat. No. 565790).
as §3, with “Z3505). RNA was then extracted by using the manufacturer's protocol with automation. Murine total lung RNA was isolated by first homogenisation of the lung in 1 ml TRIZOL™ reagent, then subsequent phase separation with 1-bromo-3-chloropropane (BCP) (MRC, Cat. No. BP151). The aqueous phase was then mixed with 70% ethanol and final RNA extraction was achieved using the Promega Total RNA Isolation System with automation.” for “Z3505).”

[4] = tested on: COPD BECs infected with HRV16; test: Mucociliary responses of BECs infected with HRV16 (real-time PCR, AB/PAS staining, β-tubulin IV immunofluorescence); format: cell-based, human
Text: as §1, §4
Ribonucleic acid (RNA) from ALI cultured COPD BECs was prepared by lysing the cells in RLT buffer supplied with Promega Total RNA Isolation System (Promega, Cat. No. Z3505). RNA was then extracted by using the manufacturer's protocol with automation. Murine total lung RNA was isolated by first homogenisation of the lung in 1 ml TRIZOL™ reagent, then subsequent phase separation with 1-bromo-3-chloropropane (BCP) (MRC, Cat. No. BP151). The aqueous phase was then mixed with 70% ethanol and final RNA extraction was achieved using the Promega Total RNA Isolation System with automation. Complementary deoxyribonucleic acid (cDNA) was synthesised by reverse transcription using MultiScribe™ Reverse Transcriptase and random primers according to the manufacturer's protocol (Applied Biosystems, Cat. No. 4368814). Amplification of specific targets was performed by quantitative real-time polymerase chain reaction (qRT-PCR) using the TaqMan® gene expression system (Applied Biosystems Cat. No. 4369510) and ready to use TaqMan® primer/probes (see Table 1). Global gene expression analysis was performed by microarray using the Human Genome U133 Plus 2.0 genechip and was done either by Epistem Ltd. (Manchester, UK) or Expression Analysis, Inc. (Durham, US). Data analysis was performed using Array Studio software (OmicSoft Corporation, Cary, US) with GC-RMA normalisation algorithm. Probes with intensities less than the geometric mean of 64 were discarded. […]
ALI cultured BECs were fixed in 4% paraformaldehyde (PFA) overnight. Mucus load was assessed by histological sections with Alcian Blue/Periodic Acid Schiff (AB/PAS) stainings and were performed by the GSK PTS histological core facility. […]

[5] = tested on: T-cell; test: T-cell chemotaxis in response to supernatants from HRV16 infected COPD BECs; format: cell-based; conditions: supernatants of COPD BECs 72 h post HRV16 infection
[6] = tested on: ALI cultured COPD BECs infected with HRV16; test: Protein secretion of immune mediators in supernatants of ALI cultured COPD BECs (MSD/ELISA); format: cell-based, human; conditions: 72 h post HRV16 infection
Text: as §1, §2
Detection of secreted proteins was done on the Meso Scale Discovery (MSD®) platform according to the manufacturer's protocol. Chemokines CXCL6 and CCL5 were detected by enzyme linked immunosorbent assay (ELISA) kits both bought from R&D systems, Cat. Nos. DY333 and DRN00B, respectively. […] Analytical flow cytometry was performed using the FACSCanto II (Beckton Dickinson) and analysed using FlowJo software (Tree Star, Inc. Ashland, US).

[7] = tested on: female Balb/c mice following HRV1B inoculation; test: Inflammation and mucus gene expression in lungs of mice following HRV1B inoculation; format: in vivo; conditions: 8 h post infection, 0.5 mg/kg
Experimental: For in-vivo experiments, 8 weeks old female BALB/c mice were intra-nasally infected with 1×10^8 plaque forming units (PFUs) of human rhinovirus serotype 1b (HRV1b) virus in a total of 50 μl and either treated or not with a γ-secretase inhibitor CompB N2-[(2S)-2-(3,5-difluorophenyl)-2-hydroxyethanoyl]-N1-[(7S)-5-methyl-6-oxo-6,7-dihydro-5H-dibenzo[b,d]azepin-7-yl]-L-alaninamide at a concentration of 0.5 mg/kg. To assess inflammation to the lung, broncho-alveolar lavage fluid (BALF) was collected and cellular infiltrates analysed on the Sysmex cell analysis system (Milton Keynes, UK). Subsequently, whole lung was placed into 1 ml of TRIZOL™ reagent for downstream gene expression analysis.
as §3, with “Z3505). RNA was then extracted by using the manufacturer's protocol with automation. Murine total lung RNA was isolated by first homogenisation of the lung in 1 ml TRIZOL™ reagent, then subsequent phase separation with 1-bromo-3-chloropropane (BCP) (MRC, Cat. No. BP151).” for “Z3505).”

[8] = healthy and COPD human BECs at ALI

| Compound | gene expression of T-cell associated chemokines [1] | gene expression of neutrophilic chemokines [1] | neutrophil chemotaxis [2] | cilia associated genes (expression) [3] | interferon response [3] | upregulation of goblet cell associated genes [3] | ciliation ([4]; COPD BECs, 72 h, ciliated cell genes and β-tubulin IV staining) | mucus production ([4]; COPD BECs, 72 h, goblet cell genes and AB/PAS staining) | loss of ciliation [4, 8] | mucus secretion [4, 8] | T-cell chemotaxis [5] | secretion of T-cell associated chemokines [6] | secretion of neutrophilic chemokines [6] | mucin gene expression (Muc5ac) in lungs [7] | recruitment of neutrophils into the lungs (BAL) [7] |
| --- | --- | --- | --- | --- | --- | --- | --- | --- | --- | --- | --- | --- | --- | --- | --- |
| C[C@H](NC(=O)Cc1cc(F)cc(F)c1)C(=O)N[C@H]1N=C(c2ccccc2)c2ccccc2N(C)C1=O [CompA, (S)-2-[2-(3,5-difluorophenyl)-acetylamino]-N—((S)-1-methyl-2-oxo-5-phenyl-2,3-dihydro-1H-benzo[e][1,4]diazepin-3-yl)-propionamide] | less affected | transcriptional inhibition | reduced | restores cilia associated genes | left unaltered | inhibits upregulation of goblet cell associated genes | restores ciliation | inhibits mucus production | prevents the loss of ciliation | reduces mucus secretion | unaltered | less affected | reduced secretion |  |  |
| C[C@H](NC(=O)[C@@H](O)c1cc(F)cc(F)c1)C(=O)N[C@@H]1C(=O)N(C)c2ccccc2-c2ccccc21 [CompB, N2-[(2S)-2-(3,5-difluorophenyl)-2-hydroxyethanoyl]-N1-[(7S)-5-methyl-6-oxo-6,7-dihydro-5H-dibenzo[b,d]azepin-7-yl]-L-alaninamide] |  |  |  |  |  |  |  |  |  |  |  |  |  | reduced | reduced |
